This note sets out measurements from patent publication US9932309B2, “2-oxo-3,4-dihydropyridine-5-carboxylates and their use” (UNIVERSITE DE LILLE 2 DROIT ET SANTE, priority 2014, dated 2018).

Each structure is given as a SMILES string.

For one experiment, the target named is T1, hTGR5 (Homo sapiens, UniProt Q8TDU6).
T1 construct: expressed in transfected cells; host or cells: HEK293 cells, transiently co-transfected with the pCRE TA-Luciferase reporter
T1 sequence (Q8TDU6 1-330): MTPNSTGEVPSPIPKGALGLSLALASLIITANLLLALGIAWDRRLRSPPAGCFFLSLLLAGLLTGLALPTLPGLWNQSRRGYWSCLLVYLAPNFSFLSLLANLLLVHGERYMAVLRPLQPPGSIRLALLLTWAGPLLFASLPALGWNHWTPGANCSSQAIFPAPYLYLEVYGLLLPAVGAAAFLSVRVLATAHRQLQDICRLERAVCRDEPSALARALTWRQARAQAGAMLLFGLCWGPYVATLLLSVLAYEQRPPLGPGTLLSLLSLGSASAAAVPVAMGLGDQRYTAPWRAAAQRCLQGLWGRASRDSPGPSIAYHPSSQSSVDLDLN
Description: TGR5/CRE Luciferase Assay (hTGR5). As to conditions: for EC50: HEK 293 cells co-transfected with pCMV tag4b-TGR5h and pCRE TA-Luciferase, overnight incubation; for hTGR5 % trans: percentage of the 10 μM LCA value, HEK 293 cells transfected with hTGR5. Type of experiment: cell-based. In a few lines:
(§1)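 Transiently co-transfected HEK293 cells expressing human or mouse TGR5 plus a CRE-luciferase reporter were incubated overnight with rising compound concentrations in duplicate. Luminescence reported cAMP-driven expression; 10 μM lithocholic acid served as positive reference. Curves fitted to a 4-parameter logistic.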

A further experiment deals with T2, mTGR5 (Mus musculus, UniProt Q80SS6).
T2 construct: expressed in transfected cells; host or cells: HEK293 cells, transiently co-transfected with the pCRE TA-Luciferase reporter
T2 sequence (Q80SS6 1-329): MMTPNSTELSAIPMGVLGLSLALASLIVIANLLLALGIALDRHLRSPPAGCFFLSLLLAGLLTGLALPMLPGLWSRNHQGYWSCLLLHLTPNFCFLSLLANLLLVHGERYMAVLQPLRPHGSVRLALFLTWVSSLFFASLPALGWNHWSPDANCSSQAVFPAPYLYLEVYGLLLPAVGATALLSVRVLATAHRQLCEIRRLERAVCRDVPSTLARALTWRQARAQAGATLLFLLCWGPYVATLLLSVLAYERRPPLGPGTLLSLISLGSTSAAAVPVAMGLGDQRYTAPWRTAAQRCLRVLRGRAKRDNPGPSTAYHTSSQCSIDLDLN
Nature of the experiment: TGR5/CRE Luciferase Assay (mTGR5). Type of experiment: cell-based. As to conditions: for EC50: HEK 293 cells co-transfected with pCMV AC6-TGR5m and pCRE TA-Luciferase, overnight incubation; for mTGR5 % trans: percentage of the 10 μM LCA value, HEK 293 cells transfected with mTGR5. In a few lines: as §1

Broadly, the EC50 is the concentration at which the effect is half-maximal. A low value points to a more potent agent. On to `COc1ccccc1COC(=O)C1=C(C)N(CC2OCCO2)C(=O)CC1c1ccc(Cl)cc1` (stereo not drawn) [Compound 72, (2-methoxyphenyl)methyl 4-(4-chlorophenyl)-1-(1,3-dioxolan-2-ylmethyl)-6-methyl-2-oxo-3,4-dihydropyridine-5-carboxylate], for which, on hTGR5, the EC50 was 80 nM and the hTGR5 % trans turned out to be 99%. On mTGR5, this molecule came in with an EC50 of 200 nM and a mTGR5 % trans of 92%.

On hTGR5, `CCOC(=O)C1=C(c2ccccc2)N(C)C(=O)CC1c1ccc(Cl)cc1` (stereo not drawn) [Example 20, Ethyl 4-(4-chlorophenyl)-1-methyl-2-oxo-6-phenyl-3,4-dihydropyridine-5-carboxylate] showed an EC50 of 3000 nM and a hTGR5 % trans of 42%. Further, at mTGR5, the EC50 came to 2500 nM and the mTGR5 % trans turned out to be 53%.

With `COCCN1C(=O)CC(c2ccc(Cl)cc2)C(C(=O)NCc2ccccc2)=C1C` (stereo not drawn) [Example 75, N-benzyl-4-(4-chlorophenyl)-1-(2-methoxyethyl)-6-methyl-2-oxo-3,4-dihydropyridine-5-carboxamide], at hTGR5, a half-maximal response (EC50) required 7800 nM and the hTGR5 % trans stood at 34%. On mTGR5, this molecule displayed a concentration for a half-maximal effect (EC50) of 18300 nM and a mTGR5 % trans of 25%.

Regarding `COCCN1C(=O)CC(c2ccc(Cl)cc2)C(C(=O)N2CCCc3ccccc32)=C1C` (stereo not drawn) [Example 77, 4-(4-chlorophenyl)-5-(3,4-dihydro-2H-quinoline-1-carbonyl)-1-(2-methoxyethyl)-6-methyl-3,4-dihydropyridin-2-one], at hTGR5, the EC50 is 2900 nM and the hTGR5 % trans turned out to be 71%. Besides, at mTGR5, the EC50 was 12300 nM and the mTGR5 % trans was 73%.

At hTGR5, `CC1=C(C(=O)OCc2ccc(C)cc2)C(c2ccc(Cl)cc2)CC(=O)N1C` (stereo not drawn) [Example 79, p-tolylmethyl 4-(4-chlorophenyl)-1,6-dimethyl-2-oxo-3,4-dihydropyridine-5-carboxylate] registered an EC50 of 700 nM and a hTGR5 % trans of 80%. On mTGR5, this molecule displayed a concentration for a half-maximal effect (EC50) of 700 nM and a mTGR5 % trans of 73%.

`CC1=C(C(=O)OCc2ccc(C(F)(F)F)cc2)C(c2ccc(Cl)cc2)CC(=O)N1C` (stereo not drawn) [Example 80, [4-(trifluoromethyl)phenyl]methyl 4-(4-chlorophenyl)-1,6-dimethyl-2-oxo-3,4-dihydropyridine-5-carboxylate]: on hTGR5, the EC50 was found to be 1500 nM and the hTGR5 % trans is on record as 60%. For the same molecule, at mTGR5, a half-maximal effect (EC50) was put at 1400 nM and the mTGR5 % trans is 67%.

Regarding `CC1=C(C(=O)OCc2ccc(F)cc2Cl)C(c2ccc(Cl)cc2)CC(=O)N1C` (stereo not drawn) [Example 81, (2-chloro-4-fluoro-phenyl)methyl 4-(4-chlorophenyl)-1,6-dimethyl-2-oxo-3,4-dihydropyridine-5-carboxylate], on hTGR5, the EC50 worked out at 500 nM and the hTGR5 % trans is given as 86%. In addition, on mTGR5, the EC50 amounted to 1300 nM and the mTGR5 % trans is reported as 62%.

On hTGR5, `CC1=C(C(=O)OCc2c(F)cccc2F)C(c2ccc(Cl)cc2)CC(=O)N1C` (stereo not drawn) [Example 82, (2,6-difluorophenyl)methyl 4-(4-chlorophenyl)-1,6-dimethyl-2-oxo-3,4-dihydropyridine-5-carboxylate] registered a concentration giving a half-maximal response (EC50) of 700 nM and a hTGR5 % trans of 74%. On mTGR5, a half-maximal response (EC50) required 1500 nM and the mTGR5 % trans is on record as 59%.

Consider `COc1ccc(COC(=O)C2=C(C)N(C)C(=O)CC2c2ccc(Cl)cc2)cc1OC` (stereo not drawn) [Example 83, (3,4-dimethoxyphenyl)methyl 4-(4-chlorophenyl)-1,6-dimethyl-2-oxo-3,4-dihydropyridine-5-carboxylate], for which, at hTGR5, the EC50 was 1200 nM and the hTGR5 % trans is 69%. Further, at mTGR5, the EC50 was determined as 400 nM and the mTGR5 % trans is 88%.

On hTGR5, `COCCN1C(=O)CC(c2ccc(Cl)cc2)C(C(=O)OCc2ccccc2F)=C1C` (stereo not drawn) [Example 84, (2-fluorophenyl)methyl 4-(4-chlorophenyl)-1-(2-methoxyethyl)-6-methyl-2-oxo-3,4-dihydropyridine-5-carboxylate] displayed an EC50 of 400 nM and a hTGR5 % trans of 71%. At mTGR5, this molecule showed an EC50 of 500 nM and a mTGR5 % trans of 71%.

At hTGR5, `COCCN1C(=O)CC(c2ccc(Cl)cc2)C(C(=O)OCc2ccc(F)cc2)=C1C` (stereo not drawn) [Example 86, (4-fluorophenyl)methyl 4-(4-chlorophenyl)-1-(2-methoxyethyl)-6-methyl-2-oxo-3,4-dihydropyridine-5-carboxylate] gave a concentration giving a half-maximal response (EC50) of 400 nM and a hTGR5 % trans of 71%. On mTGR5, the EC50 turned out to be 400 nM and the mTGR5 % trans is 82%.

At hTGR5, `COCCN1C(=O)CC(c2ccc(Cl)cc2)C(C(=O)OCc2cccc(Cl)c2)=C1C` (stereo not drawn) [Example 88, (3-chlorophenyl)methyl 4-(4-chlorophenyl)-1-(2-methoxyethyl)-6-methyl-2-oxo-3,4-dihydropyridine-5-carboxylate] yielded a half-maximal effective concentration (EC50) of 200 nM and a hTGR5 % trans of 75%. Besides, on mTGR5, the EC50 was determined as 400 nM and the mTGR5 % trans is recorded as 91%.

At hTGR5, `COCCN1C(=O)CC(c2ccc(Cl)cc2)C(C(=O)OCc2ccc(Cl)cc2)=C1C` (stereo not drawn) [Example 89, (4-chlorophenyl)methyl 4-(4-chlorophenyl)-1-(2-methoxyethyl)-6-methyl-2-oxo-3,4-dihydropyridine-5-carboxylate] had an EC50 of 400 nM and a hTGR5 % trans of 65%. Moreover, on mTGR5, the EC50 is 300 nM and the mTGR5 % trans is given as 84%.

With `COCCN1C(=O)CC(c2ccc(Cl)cc2)C(C(=O)OCc2ccccc2C(F)(F)F)=C1C` (stereo not drawn) [Example 90, [2-(trifluoromethyl)phenyl]methyl 4-(4-chlorophenyl)-1-(2-methoxyethyl)-6-methyl-2-oxo-3,4-dihydropyridine-5-carboxylate], at hTGR5, the midpoint of the response, the EC50, lay at 1100 nM and the hTGR5 % trans stood at 57%. At mTGR5, a half-maximal effect (EC50) was put at 1300 nM and the mTGR5 % trans worked out at 34%.

Regarding `COCCN1C(=O)CC(c2ccc(Cl)cc2)C(C(=O)OCc2cccc(C(F)(F)F)c2)=C1C` (stereo not drawn) [Example 91, [3-(trifluoromethyl)phenyl]methyl 4-(4-chlorophenyl)-1-(2-methoxyethyl)-6-methyl-2-oxo-3,4-dihydropyridine-5-carboxylate], the 50% effective concentration (EC50) on hTGR5 was 500 nM; on mTGR5, 700 nM.

On hTGR5, `COCCN1C(=O)CC(c2ccc(Cl)cc2)C(C(=O)OCc2ccccc2C#N)=C1C` (stereo not drawn) [Example 93, (2-cyanophenyl)methyl 4-(4-chlorophenyl)-1-(2-methoxyethyl)-6-methyl-2-oxo-3,4-dihydropyridine-5-carboxylate] showed an EC50 of 600 nM and a hTGR5 % trans of 58%. Besides, at mTGR5, the midpoint of the response, the EC50, lay at 800 nM and the mTGR5 % trans amounted to 53%.

In the case of `COCCN1C(=O)CC(c2ccc(Cl)cc2)C(C(=O)OCc2cccc(C#N)c2)=C1C` (stereo not drawn) [Example 94, (3-cyanophenyl)methyl 4-(4-chlorophenyl)-1-(2-methoxyethyl)-6-methyl-2-oxo-3,4-dihydropyridine-5-carboxylate], on hTGR5, the EC50 was 600 nM and the hTGR5 % trans worked out at 61%. At mTGR5, this molecule came in with an EC50 of 400 nM and a mTGR5 % trans of 65%.

On hTGR5, `COCCN1C(=O)CC(c2ccc(Cl)cc2)C(C(=O)OCc2ccc(C#N)cc2)=C1C` (stereo not drawn) [Example 95, (4-cyanophenyl)methyl 4-(4-chlorophenyl)-1-(2-methoxyethyl)-6-methyl-2-oxo-3,4-dihydropyridine-5-carboxylate] returned an EC50 of 200 nM and a hTGR5 % trans of 78%. At mTGR5, the midpoint of the response, the EC50, lay at 300 nM and the mTGR5 % trans is on record as 76%.

At hTGR5, `COCCN1C(=O)CC(c2ccc(Cl)cc2)C(C(=O)OCc2cccc(C(=O)OC)c2)=C1C` (stereo not drawn) [Example 96, (3-methoxycarbonylphenyl)methyl 4-(4-chlorophenyl)-1-(2-methoxyethyl)-6-methyl-2-oxo-3,4-dihydropyridine-5-carboxylate] gave an EC50 of 1100 nM and a hTGR5 % trans of 63%. Further, at mTGR5, the EC50 was found to be 600 nM and the mTGR5 % trans came out at 83%.

On hTGR5, `COCCN1C(=O)CC(c2ccc(Cl)cc2)C(C(=O)OCc2ccc(C(=O)OC)cc2)=C1C` (stereo not drawn) [Example 97, (4-methoxycarbonylphenyl)methyl 4-(4-chlorophenyl)-1-(2-methoxyethyl)-6-methyl-2-oxo-3,4-dihydropyridine-5-carboxylate] showed an EC50 of 400 nM and a hTGR5 % trans of 76%. At mTGR5, this molecule gave an EC50 of 400 nM and a mTGR5 % trans of 76%.
